Test results as given in US9169260B2 (MERCK SHARP & DOHME CORP., priority 2011, dated 2015).

Each molecule was assayed against GST tagged IRAK-4 (Homo sapiens (Human), UniProt Q9NWZ3) (assay: IRAK-4 Kinase Assay (IMAP fluorescence polarization)). Details: 100 μM ATP, 30 minutes at 25° C.
Type: biochemical
Method: The kinase activity of IRAK-4 is determined by its ability to catalyze the phosphorylation of a fluorescent polypeptide substrate. The extent of phosphorylation is measured using the IMAP technology (Molecular Devices) where the phosphorylated fluorescent substrate binds to the large M(III)-based nanoparticles which reduces the rotational speed of the substrate and thus increases its fluorescent polarization (FP).
20 μl reaction mixture contains 10 mM TriHCl, pH 7.2, 0.5 nM GST tagged IRAK-4 (SignalChem), 100 nM fluorescent peptide substrate (RP7030, Molecular Devices), 100 μM ATP, 1 mM DTT, 1 mM MgCl2, and 0.01% Tween 20. The reaction is initiated by the addition of ATP. After incubation for 30 minutes at 25° C., 60 μl of Progressive IMAP Reagent (Molecular Devices) is added to stop the reaction. Change in RP7030's FP is determined by a FP reader (Analyst HT, LH, BioSystems).

Chain of GST tagged IRAK-4 (Q9NWZ3 whole entry): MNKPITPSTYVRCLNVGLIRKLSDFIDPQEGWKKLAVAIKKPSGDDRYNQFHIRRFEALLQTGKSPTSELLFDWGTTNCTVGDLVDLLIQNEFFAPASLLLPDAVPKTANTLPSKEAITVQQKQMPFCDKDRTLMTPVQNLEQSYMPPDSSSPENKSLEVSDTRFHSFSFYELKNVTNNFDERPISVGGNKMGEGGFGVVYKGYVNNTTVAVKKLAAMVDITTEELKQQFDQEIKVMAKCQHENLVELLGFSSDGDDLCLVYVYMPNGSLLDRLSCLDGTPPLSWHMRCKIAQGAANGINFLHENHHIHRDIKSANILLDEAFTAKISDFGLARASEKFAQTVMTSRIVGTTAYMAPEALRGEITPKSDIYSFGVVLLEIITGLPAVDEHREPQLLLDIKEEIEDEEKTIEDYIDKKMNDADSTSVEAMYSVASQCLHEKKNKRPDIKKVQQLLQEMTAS

Compound | IC50
O=C(Nc1cc(C2CCN(C3CCC3)CC2)nn1-c1ccc(Cl)cc1F)c1cnn2cccnc12 [Example 51, N-(1-(4-chloro-2-fluorophenyl)-3-(1-cyclobutylpiperidin-4-yl)-1H-pyrazol-5-yl)pyrazolo[1,5-a]pyrimidine-3-carboxamide] | < 0.1 µM
CS(=O)(=O)N1CCC(c2cc(NC(=O)c3cnn4cccnc34)n(-c3ccc(C4CC4)cc3)n2)CC1 [Example 53, N-(1-(4-cyclopropylphenyl)-3-(1-(methylsulfonyl)piperidin-4-yl)-1H-pyrazol-5-yl)pyrazolo[1,5-a]pyrimidine-3-carboxamide] | < 0.1 µM
Cc1ccc(-n2nc(C3CCNCC3)cc2NC(=O)c2cnn3cccnc23)c(F)c1 [Example 56, N-(1-(2-fluoro-4-methylphenyl)-3-(piperidin-4-yl)-1H-pyrazol-5-yl)pyrazolo[1,5-a]pyrimidine-3-carboxamide] | < 0.1 µM
Cc1ccc(-n2nc(C3CCN(C(C)C)CC3)cc2NC(=O)c2cnn3cccnc23)c(F)c1 [Example 58, N-(1-(2-fluoro-4-methylphenyl)-3-(1-isopropylpiperidin-4-yl)-1H-pyrazol-5-yl)pyrazolo[1,5-a]pyrimidine-3-carboxamide] | < 0.1 µM
Cc1ccc(-n2nc(C3CCN(C4CCC4)CC3)cc2NC(=O)c2cnn3cccnc23)c(F)c1 [Example 59, N-(3-(1-cyclobutylpiperidin-4-yl)-1-(2-fluoro-4-methylphenyl)-1H-pyrazol-5-yl)pyrazolo[1,5-a]pyrimidine-3-carboxamide] | < 0.1 µM
O=C(Nc1cc(C2CCNCC2)nn1-c1ccc(C2CC2)cc1F)c1cnn2cccnc12 [Example 72, N-(1-(4-cyclopropyl-2-fluorophenyl)-3-(piperidin-4-yl)-1H-pyrazol-5-yl)pyrazolo[1,5-a]pyrimidine-3-carboxamide] | < 0.1 µM
CC(C)N1CCC(c2cc(NC(=O)c3cnn4cccnc34)n(-c3ccc(C4CC4)cc3F)n2)CC1 [Example 74, N-(1-(4-cyclopropyl-2-fluorophenyl)-3-(1-isopropylpiperidin-4-yl)-1H-pyrazol-5-yl)pyrazolo[1,5-a]pyrimidine-3-carboxamide] | < 0.1 µM
O=C(Nc1cc(C2CCNCC2)nn1-c1c(F)cc(C2CC2)cc1F)c1cnn2cccnc12 [Example 77, N-(1-(4-cyclopropyl-2,6-difluorophenyl)-3-(piperidin-4-yl)-1H-pyrazol-5-yl)pyrazolo[1,5-a]pyrimidine-3-carboxamide] | < 0.1 µM

Next, values leading:

IC50 | Compound
< 0.1 µM | O=C(Nc1cc(C2CCNCC2)nn1-c1ccc(C2CC2)cc1)c1cnn2cccnc12 [Example 52, N-(1-(4-cyclopropylphenyl)-3-(piperidin-4-yl)-1H-pyrazol-5-yl)pyrazolo[1,5-a]pyrimidine-3-carboxamide]
< 0.1 µM | CC(C)N1CCC(c2cc(NC(=O)c3cnn4cccnc34)n(-c3ccc(C4CC4)cc3)n2)CC1 [Example 55, N-(1-(4-cyclopropylphenyl)-3-(1-isopropylpiperidin-4-yl)-1H-pyrazol-5-yl)pyrazolo[1,5-a]pyrimidine-3-carboxamide]
< 0.1 µM | Cc1ccc(-n2nc(C3CCN(S(C)(=O)=O)CC3)cc2NC(=O)c2cnn3cccnc23)c(F)c1 [Example 57, N-(1-(2-fluoro-4-methylphenyl)-3-(1-(methylsulfonyl)piperidin-4-yl)-1H-pyrazol-5-yl)pyrazolo[1,5-a]pyrimidine-3-carboxamide]
< 0.1 µM | COc1ccc(-n2nc(C3CCNCC3)cc2NC(=O)c2cnn3cccnc23)c(F)c1 [Example 61, N-(1-(2-fluoro-4-methoxyphenyl)-3-(piperidin-4-yl)-1H-pyrazol-5-yl)pyrazolo[1,5-a]pyrimidine-3-carboxamide]
< 0.1 µM | COc1ccc(-n2nc(C3CCN(C(C)C)CC3)cc2NC(=O)c2cnn3cccnc23)c(F)c1 [Example 62, N-(1-(2-fluoro-4-methoxyphenyl)-3-(1-isopropylpiperidin-4-yl)-1H-pyrazol-5-yl)pyrazolo[1,5-a]pyrimidine-3-carboxamide]
< 0.1 µM | COc1ccc(-n2nc(C3CCN(S(=O)(=O)C4CC4)CC3)cc2NC(=O)c2cnn3cccnc23)c(F)c1 [Example 63, N-(3-(1-(cyclopropylsulfonyl)piperidin-4-yl)-1-(2-fluoro-4-methoxyphenyl)-1H-pyrazol-5-yl)pyrazolo[1,5-a]pyrimidine-3-carboxamide]
< 0.1 µM | COc1ccc(-n2nc(C3CCN(S(C)(=O)=O)CC3)cc2NC(=O)c2cnn3cccnc23)c(F)c1 [Example 64, N-(1-(2-fluoro-4-methoxyphenyl)-3-(1-(methylsulfonyl)piperidin-4-yl)-1H-pyrazol-5-yl)pyrazolo[1,5-a]pyrimidine-3-carboxamide]
< 0.1 µM | CS(=O)(=O)N1CCC(c2cc(NC(=O)c3cnn4cccnc34)n(-c3ccc(C4CC4)cc3F)n2)CC1 [Example 73, N-(1-(4-cyclopropyl-2-fluorophenyl)-3-(1-(methylsulfonyl)piperidin-4-yl)-1H-pyrazol-5-yl)pyrazolo[1,5-a]pyrimidine-3-carboxamide]
< 0.1 µM | O=C(Nc1cc(C2CCN(C3CCC3)CC2)nn1-c1ccc(C2CC2)cc1F)c1cnn2cccnc12 [Example 75, N-(3-(1-cyclobutylpiperidin-4-yl)-1-(4-cyclopropyl-2-fluorophenyl)-1H-pyrazol-5-yl)pyrazolo[1,5-a]pyrimidine-3-carboxamide]

Same assay, conditions: 100 μM ATP, 30 minutes at 25° C.; μM

Compound | IC50
Cc1ccc(-n2nc(C3CCNCC3)cc2NC(=O)c2cnn3cccnc23)c(Cl)c1 [Example 65, N-(1-(2-chloro-4-methylphenyl)-3-(piperidin-4-yl)-1H-pyrazol-5-yl)pyrazolo[1,5-a]pyrimidine-3-carboxamide] | < 1 µM
Cc1cc(F)ccc1-n1nc(C2CCNCC2)cc1NC(=O)c1cnn2cccnc12 [Example 68, N-(1-(4-fluoro-2-methylphenyl)-3-(piperidin-4-yl)-1H-pyrazol-5-yl)pyrazolo[1,5-a]pyrimidine-3-carboxamide] | > 1 µM
Cc1cc(F)ccc1-n1nc(C2CCN(C(C)C)CC2)cc1NC(=O)c1cnn2cccnc12 [Example 69, N-(1-(4-fluoro-2-methylphenyl)-3-(1-isopropylpiperidin-4-yl)-1H-pyrazol-5-yl)pyrazolo[1,5-a]pyrimidine-3-carboxamide] | < 1 µM
Cc1ccc(-n2nc(C3COCCN3)cc2NC(=O)c2cnn3cccnc23)cc1 (stereo not shown) [Example 79, N-(3-(morpholin-3-yl)-1-(p-tolyl)-1H-pyrazol-5-yl)pyrazolo[1,5-a]pyrimidine-3-carboxamide] | < 1 µM
Cc1ccc(-n2nc(C3CCNC3)cc2NC(=O)c2cnn3cccnc23)cc1 (stereo not shown) [Example 80, N-(3-(pyrrolidin-3-yl)-1-(p-tolyl)-1H-pyrazol-5-yl)pyrazolo[1,5-a]pyrimidine-3-carboxamide] | < 1 µM
Cc1ccc(-n2nc(C3CN(S(C)(=O)=O)C3)cc2NC(=O)c2cnn3cccnc23)cc1 [Example 83, N-(3-(1-(methylsulfonyl)azetidin-3-yl)-1-(p-tolyl)-1H-pyrazol-5-yl)pyrazolo[1,5-a]pyrimidine-3-carboxamide] | < 1 µM
Cc1ccc(-n2nc(C3CN(S(=O)(=O)C4CC4)C3)cc2NC(=O)c2cnn3cccnc23)cc1 [Example 84, N-(3-(1-(cyclopropylsulfonyl)azetidin-3-yl)-1-(p-tolyl)-1H-pyrazol-5-yl)pyrazolo[1,5-a]pyrimidine-3-carboxamide] | < 1 µM

Second part, the molecule after the results:

IC50 | Compound
< 1 µM | O=C(Nc1cc(C2CCN(S(=O)(=O)C3CC3)CC2)nn1-c1ccc(C2CC2)cc1)c1cnn2cccnc12 [Example 54, N-(1-(4-cyclopropylphenyl)-3-(1-(cyclopropylsulfonyl)piperidin-4-yl)-1H-pyrazol-5-yl)pyrazolo[1,5-a]pyrimidine-3-carboxamide]
< 1 µM | Cc1ccc(-n2nc(C3CCN(C(C)C)CC3)cc2NC(=O)c2cnn3cccnc23)c(Cl)c1 [Example 66, N-(1-(2-chloro-4-methylphenyl)-3-(1-isopropylpiperidin-4-yl)-1H-pyrazol-5-yl)pyrazolo[1,5-a]pyrimidine-3-carboxamide]
> 1 µM | O=C(Nc1cc(C2CCNCC2)nn1-c1cc(F)cc(F)c1)c1cnn2cccnc12 [Example 67, N-(1-(3,5-difluorophenyl)-3-(piperidin-4-yl)-1H-pyrazol-5-yl)pyrazolo[1,5-a]pyrimidine-3-carboxamide]
< 1 µM | O=C(Nc1cc(C2CCNCC2)nn1-c1ccc(Br)cc1F)c1cnn2cccnc12 [Example 70, N-(1-(4-bromo-2-fluorophenyl)-3-(piperidin-4-yl)-1H-pyrazol-5-yl)pyrazolo[1,5-a]pyrimidine-3-carboxamide]
< 1 µM | CS(=O)(=O)N1CCC(c2cc(NC(=O)c3cnn4cccnc34)n(-c3ccc(Br)cc3F)n2)CC1 [Example 71, N-(1-(4-bromo-2-fluorophenyl)-3-(1-(methylsulfonyl)piperidin-4-yl)-1H-pyrazol-5-yl)pyrazolo[1,5-a]pyrimidine-3-carboxamide]
< 1 µM | O=C(Nc1cc(C2CCN(CC(F)(F)F)CC2)nn1-c1ccc(C2CC2)cc1F)c1cnn2cccnc12 [Example 76, N-(1-(4-cyclopropyl-2-fluorophenyl)-3-(1-(2,2,2-trifluoroethyl)piperidin-4-yl)-1H-pyrazol-5-yl)pyrazolo[1,5-a]pyrimidine-3-carboxamide]
> 1 µM | Cc1ccc(-n2nc(C3CNC3)cc2NC(=O)c2cnn3cccnc23)cc1 [Example 82, N-(3-(azetidin-3-yl)-1-(p-tolyl)-1H-pyrazol-5-yl)pyrazolo[1,5-a]pyrimidine-3-carboxamide]
